Data taken from ChEMBL document CHEMBL5143570, “Development of naringenin-O-carbamate derivatives as multi-target-directed liagnds for the treatment of Alzheimer's disease” (Bioorg Med Chem Lett, 2022).
Active and inactive are the calls of the source. No cut-off for these calls is given here.

Assays:
[1] = molecular target: Amyloid-beta precursor protein (Homo sapiens) (UniProt P05067); assay: Inhibition of Cu2+-induced amyloid beta (1 to 42) (unknown origin) aggregation at 25 uM by thioflavin-T fluorescence method relative to control
[2] = Inhibition of LPS-induced NO production in mouse BV-2 cells at 10 uM by Griess reaction method relative to control; assay type: functional
[3] = Metal chelating activity assessed as Al3+-compound complex formation by measuring maximum absorption wavelength shift in the presence of AlCl3 by UV-visible spectrometric analysis
L02 = assay: Hepatoprotective activity against H2O2-induced cytotoxicity in human L02 cells assessed as increase in cell viability at 20 uM by MTT assay; assay type: functional
[4] = Effect on tau protein expression in pRK5-GFP-Tau P301L plasmid transfected mouse HT-22 cells assessed as reduction in fluorescence intensity at 5 uM by fluorescence microscopic analysis (reference value: 35.0); assay type: functional
[5] = Inhibition of LPS-induced TNFalpha production in mouse BV-2 cells assessed as TNFalpha level at 5 uM by ELISA analysis relative to control; assay type: functional
[6] = Effect on tau protein expression in pRK5-GFP-Tau P301L plasmid transfected mouse HT-22 cells assessed as reduction in fluorescence intensity at 10 uM by fluorescence microscopic analysis (reference value: 35.0); assay type: functional
PC-12 = assay: Neuroprotective activity against H2O2-induced cytotoxicity in rat PC-12 cells assessed as increase in cell viability at 10 uM by MTT assay relative to control; assay type: functional
Acetylcholinesterase = molecular target: T1, Acetylcholinesterase (Rattus norvegicus, UniProt P37136); assay: Inhibition of rat cortex AChE using acetylthiocholine as substrate incubated for 15 mins by DTNB reagent based Ellman's method; assay type: tissue-based
T1 sequence (P37136 whole entry): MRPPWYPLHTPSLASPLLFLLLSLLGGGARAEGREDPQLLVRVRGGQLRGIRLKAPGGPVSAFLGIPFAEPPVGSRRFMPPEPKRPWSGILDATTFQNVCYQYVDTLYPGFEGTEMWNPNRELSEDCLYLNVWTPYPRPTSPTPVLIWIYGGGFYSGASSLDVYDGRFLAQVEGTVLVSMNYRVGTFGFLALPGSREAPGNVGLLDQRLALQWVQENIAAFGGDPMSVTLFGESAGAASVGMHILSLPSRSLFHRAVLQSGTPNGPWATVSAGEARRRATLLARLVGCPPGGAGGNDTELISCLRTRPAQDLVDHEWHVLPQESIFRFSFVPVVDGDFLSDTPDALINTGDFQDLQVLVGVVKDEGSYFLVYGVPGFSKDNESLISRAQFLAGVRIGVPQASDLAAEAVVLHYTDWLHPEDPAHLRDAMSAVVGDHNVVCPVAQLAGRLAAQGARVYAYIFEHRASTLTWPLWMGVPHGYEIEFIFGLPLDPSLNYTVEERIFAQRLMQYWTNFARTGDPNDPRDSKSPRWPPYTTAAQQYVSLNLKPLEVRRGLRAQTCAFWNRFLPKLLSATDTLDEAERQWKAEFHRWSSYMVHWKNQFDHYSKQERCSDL

[7] = Effect on APP protein expression in pEGFP-N1-APP plasmid transfected mouse HT-22 cells assessed as decrease in fluorescence intensity at 5 uM incubated for 24 hrs by fluorescence microscopic analysis (reference value: 30.7); assay type: functional
[8] = Inhibition of LPS-induced NO production in mouse BV-2 cells at 5 uM by Griess reaction method relative to control; assay type: functional
[9] = Effect on tau protein expression in pRK5-GFP-Tau plasmid transfected mouse HT-22 cells assessed as reduction in fluorescence intensity at 10 uM incubated for 24 hrs by fluorescence microscopic analysis (reference value: 36.8); assay type: functional

Amyloid-beta precursor protein (Homo sapiens), sequence (P05067 whole entry): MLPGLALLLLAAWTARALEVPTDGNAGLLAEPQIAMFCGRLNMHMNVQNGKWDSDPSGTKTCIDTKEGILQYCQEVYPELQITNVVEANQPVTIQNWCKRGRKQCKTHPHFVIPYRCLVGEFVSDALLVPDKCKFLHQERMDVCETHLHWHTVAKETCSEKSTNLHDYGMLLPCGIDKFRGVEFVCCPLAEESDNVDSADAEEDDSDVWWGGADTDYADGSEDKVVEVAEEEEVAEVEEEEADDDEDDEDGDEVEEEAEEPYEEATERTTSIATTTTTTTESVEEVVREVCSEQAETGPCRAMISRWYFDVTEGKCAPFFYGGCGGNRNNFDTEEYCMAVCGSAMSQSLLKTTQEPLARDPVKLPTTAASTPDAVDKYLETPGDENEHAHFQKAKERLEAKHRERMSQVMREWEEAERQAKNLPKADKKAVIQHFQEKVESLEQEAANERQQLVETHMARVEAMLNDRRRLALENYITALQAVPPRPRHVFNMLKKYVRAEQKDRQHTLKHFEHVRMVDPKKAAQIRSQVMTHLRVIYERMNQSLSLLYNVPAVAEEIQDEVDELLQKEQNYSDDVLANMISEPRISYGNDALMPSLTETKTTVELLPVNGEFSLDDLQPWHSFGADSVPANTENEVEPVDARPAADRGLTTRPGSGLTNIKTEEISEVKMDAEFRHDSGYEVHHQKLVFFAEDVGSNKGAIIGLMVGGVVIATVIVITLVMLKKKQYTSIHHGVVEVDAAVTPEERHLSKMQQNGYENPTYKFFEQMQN

Question: For `CCN(C)C(=O)Oc1ccc(C2CC(=O)c3c(O)cc(OC(=O)N(C)CC)cc3O2)cc1` (configuration not stated), which inhibition [1] is on record?
Answer: 66.5%

Question: What about the inhibition at 10 µM [2] of the same compound?
Answer: 55.6%

Question: What about the Activity [3] of the same compound?
Answer: Active

Question: What about the Activity (L02) of the same compound?
Answer: 77.3%

Question: What about the Flu intensity [4] of the same compound?
Answer: 18.4

Question: What about the inhibition at 5 µM [5] of the same compound?
Answer: 50.1%

Question: What about the Flu intensity [6] of the same compound?
Answer: 9.28

Question: What about the Activity (PC-12) of the same compound?
Answer: 70.2%

Question: And the IC50 (Acetylcholinesterase)?
Answer: 6.2 µM

Question: What about the Flu intensity [7] of the same compound?
Answer: 21.9

Question: What about the inhibition at 5 µM [8] of the same compound?
Answer: 41.7%

Question: And the Flu intensity [9]?
Answer: 19
